Reference: US6451334B2, “Compositions and administration of compositions for the treatment of blood disorders” (priority 1997, dated 2002)
“Also recorded” adds a separate entry of the source. Where two headings read alike, the source gives them in different places.

Columns and labels:
[1] = system: Mononuclear cells from patients with sickle cell disease or thalassemia trait; assay: Erythroid colony (BFU-E) cultures in methylcellulose; type: cell-based, human; conditions: 0.2-0.5 mM, optimal growth factors; for % Increase over control: BFU-E
Method: Mononuclear cells from patients with sickle cell disease or thalassemia trait were isolated on Ficoll Hypague, washed, and cultured in methylcellulose media with optimal concentrations of hematopoietic growth factors IL-3, GM-CSF, Stem Cell Factor, IL6, 3 U/ml Eiythropoietin, insulin, bovine serum albumin, and 0.2-0.5 mM concentrations of test compounds of derivatives of cinnamic acid and hydrocinnamic acid. […] The following illustrates some representative cultures: […]

K562 cells = assay: Treatment of K562 cells and analysis of globin mRNA by primer extension; type: cell-based, human; conditions: for fold induction at 1000 µM: Homo sapiens, K562, 72 h, read-out: increase in γ-globin mRNA over constitutive levels in untreated control K562 cells; for stimulating γ globin compared to control cells (ranking in words) / Radioactivity Alpha Globin (α) mRNA / Radioactivity Fetal Globin (γ) mRNA / γ/α: K562 cells; for pattern of globin gene stimulation in K562 cells: α and γ globin mRNA; for Radioactivity Alpha Globin (α) mRNA / Radioactivity Fetal Globin (γ) mRNA: phosphorimager; for γ/α: ratio of globin mRNA radioactivity
Method: K562 cells kindly provided by Dr. George Atweh were cultured with 10% fetal bovine serum (Sigma, St. Louis, Mo.) and RPMI media (Grand Island Biological Company, Grand Island, N.Y.) in a humidified atmosphere with 5% CO2/95% air. Compounds were tested at a final concentration of 1 mM at neutral pH and included butyric acid, phenoxyacetic acid, dimethylbutric acid, alpha-methylhydrocionamic acid, 2,3, and 4-methoxyhydrocinnamic acid, dihydrocinnamic acid, methoxycinnamic acid, methoxyacetic acid, phenylpropionic acid, amino hydrocinnamic acid, DL β- and DL-βamino-n-butyric acid, cinnamic acid, and 2 methylhydrocinnamic acid (Aldrich Chemical Company, St. Louis, Mo.). Additional compounds studied included dimethylhydroxy acetic acid, dimethylpropionic acid, dimethylphenoxyacetic acid, and dimethylmethoxyacetic acid. After three days of culture with these agents, mRNA was purified and α, β, and γ globin mRNA was analyzed by primer extension using oligonucleotide primers and quantitation on a PhosphoImager as previously described.

32D cells = assay: Proliferation studies using 32D cells at low IL-3; type: cell-based, murine; conditions: 0.5 U/ml IL-3, 1 mM; listed as butyrate
Method: 32D cells were cultured in RPMI media with 10% fetal bovine serum (Sigma, St. Louis, Mo.), […] glutamine (GIBCO), and murine IL3 (20 U/ml) (Biosource International). Growth factor controls used included the standard concentration of IL-3 required for proliferation of these cells (25 U/ml) and a 50-fold lower concentration (0.5 U/ml), and erythropoietin (3 U/ml) or G-CSF ( U/ml), (Amgen, Thousand Oaks, Calif.). The test compounds were added at final concentrations of 1 mM. As a cell density of 2.5−10×10^5 is necessary for growth of this cell line, this density was maintained by passing the cells at three day intervals or by concentrating the cells when apoptosis occurred. Proportions of cells which were viable or apoptotic, and the fraction of cells in each part of the cell cycle was assessed by incubating the cells with Trypan blue and enumeration, and with propidium iodide incubation and FACScan analysis as previously described.
The effects of the representative compounds which have been synthesized or selected for resistance to beta oxidative metabolism and glucuronidation in stimulating γ globin gene expression in a human erythroid-like cell line and for their effects on cell growth utilizing a multi-lineage murine hematopoietic cell line, 32D. This cell line is dependent on high concentrations of IL-3 for growth. […]

[2] = system: mice transgenic for a human beta globin locus YAC containing a silenced gamma globin gene; assay: In vivo experiments in mice transgenic for the human beta globin gene locus
Method: Three prototype compounds, methylhydrocinnamic acid (MHCA), phenoxyacetic acid (PAA), and dimethylbutyric acid PMB), were administered at doses from 100 to 250 mg/kg in two daily doses by intraperitoneal injection to mice transgenic for a human beta globin locus YAC containing a silenced gamma globin gene. Reticulocytes, newly synthesized red blood cells, were counted daily and non-alpha globin in MRNA was analyzed by Rnase protection. Only 50 microliters of blood were removed daily for testing. A 5 to 10-fold increase in reticulocytes and a 1.7-2.4 fold increase in gamma globin mRNA was observed within one week of therapy with the three protype compounds. In contrast, control mice to which normal saline was administered, with the same degree of phlebotomy for testing, had no significant changes in reticulocytes or globin in mRNA.

cell viability = assay: DNA fragmentation assays (cell viability); type: cell-based
Description: Normal cell viability, the viability of an untransformed or uninfected cell, can be determined from analyzing the effects of the composition on one or more biological processes of the cell. Detrimental interference with one or more of these cellular processes becomes significant when the process becomes abnormal. Examples of quantitatable and qualifiable biological processes include the processes of cell division, protein synthesis, nucleic acid (DNA or RNA) synthesis, nucleic acid (principally DNA) fragmentation and apoptosis. Others processes include specific enzyme activities, the activities of the cellular transportation systems such as the transportation of amino acids by system A (neutral), system B (acidic) or system C (basic), and the expression of a cell surface protein. […] Abnormal cell division, for example, can be mitosis which occurs too rapidly, as in a malignancy, or unstably, resulting in programmed cell death or apoptosis, detected by increased DNA degradation. The determination of abnormal cell viability can be made on comparison with untreated control cells. […] Increased cell viability can be determined by those of ordinary skill in the art using, for example, DNA fragmentation analysis. […] Determinations of increased or decreased viability can also be concluded from an analysis of the results of multiple different assays. Where multiple tests provide conflicting results, accurate conclusions can still be drawn by those of ordinary skill based upon the cell type, the correctness or correlation of the tests with actual conditions and the type of composition.

[3] = system: system A transport of amino acids; assay: System A transport of amino acids; type: cell-based
Description: Normal cell viability, the viability of an untransformed or uninfected cell, can be determined from analyzing the effects of the composition on one or more biological processes of the cell. Detrimental interference with one or more of these cellular processes becomes significant when the process becomes abnormal. Examples of quantitatable and qualifiable biological processes include the processes of cell division, protein synthesis, nucleic acid (DNA or RNA) synthesis, nucleic acid (principally DNA) fragmentation and apoptosis. Others processes include specific enzyme activities, the activities of the cellular transportation systems such as the transportation of amino acids by system A (neutral), system B (acidic) or system C (basic), and the expression of a cell surface protein. […] Abnormal cell division, for example, can be mitosis which occurs too rapidly, as in a malignancy, or unstably, resulting in programmed cell death or apoptosis, detected by increased DNA degradation. The determination of abnormal cell viability can be made on comparison with untreated control cells. Compositions preferably increase normal cell viability. Increased cell viability can be determined by those of ordinary skill in the art using, for example, DNA fragmentation analysis. […]

in vivo = conditions: monkey, po
Method: Chronic indwelling venous and arterial catheters which were maintained using sterile technique for blood sampling. Compounds were administered by nasogastric tube and blood was collected to determine drug plasma levels at regular intervals following single oral doses. […] The test compounds were analyzed after ether extraction of the plasma, separation by HPLC, and quantitated by comparison to a spilled internal standard of heptanoic acid according to previously described methods.

[4] = system: c-myb, c-myc, actin, and histone H3; assay: Northern blots of growth related genes in 32D cells; type: cell-based, murine; conditions: low IL-3, 1 mM, Northern blot
Method: Cell proliferation stimulation is transgenic mice, baboons, human cell culture, and a murine multi-lineage cell line by the active compounds, genes whose expression is increased early in cell proliferation induced by hematopoietic growth factors such as IL-3 and erythropoietin were examined. RNA was extracted from 32D cells treated with the compounds for one day and for 11 days. Northern blots were prepared with probes for the early growth related genes c-myb and c-myc and beta actin and histone H3 were used as controls. Increased expression of c-myb occurs transiently, and early, when growth is induced by erythropoietin and IL-3.
The first lane is from cells cultured in no IL-3, lane 2 in 25 U/ml murine IL3 and lanes 3-18 have low IL-3 concentration (0.5 U/ml) plus test compounds. […] All compounds were tested here at 1 mM. […] 20 ug of total RNA from each sample were subjected to Northern blot analysis using specific probes for c-myb, c-myc, actin, and histone H3. One day and 11-day samples from the same treated cells were quantitated by PhosphoImager.

[5] = primer extension, 1 mM, three days of culture, FIG. 1

| SMILES | fold induction at 1000 µM (K562 cells; [5]) | Radioactivity Alpha Globin (α) mRNA (K562 cells; 1 mM) | Radioactivity Fetal Globin (γ) mRNA (K562 cells; 1 mM) | γ/α (K562 cells; 1 mM) | further results |
| --- | --- | --- | --- | --- | --- |
| COc1ccc(C=CC(=O)O)cc1 [4 Methoxycinnamic acid] | – | – | – | – | Mean BFU-E/culture 4 cultures averaged (per 0.2 million cells) [1]: 191; % Increase over control [1]: 8.5% |
| CCCC(=O)O [Butyric acid, butyric acid, reference compound] | 2 | – | – | – | stimulating γ globin compared to control cells (ranking in words) (K562 cells; 1 mM): most active; pattern of globin gene stimulation in K562 cells (K562 cells): stimulated expression of both α and γ globin MRNA; effect on 32D cells with low IL-3 (32D cells): decreased cell proliferation and cell death; also recorded: Cells die |
| O=C(O)COc1ccccc1 [PAA, phenoxyacetic acid] | – | 507148 | 2755891 | 5.4 | fold induction at 1000 µM (K562 cells): 2.4 to 26; stimulating γ globin compared to control cells (ranking in words) (K562 cells; 1 mM): most active; pattern of globin gene stimulation in K562 cells (K562 cells): stimulated expression of both α and γ globin MRNA; Reticulocytes (fold increase) ([2]; 100 to 250 mg/kg in two daily doses, intraperitoneal, within one week): 2.5 to 7 fold; cell viability / DNA fragmentation (cell viability): reduce DNA fragmentation; system A transport of amino acids [3]: do not significantly alter; half-life (in vivo): 6.5 h |
| NC(CC(=O)O)c1ccccc1 (stereo not drawn) [ST 30, β-aminohydrocinnamic acid] | – | – | – | – | c-myb induced [4]: 2 fold |
| COc1ccccc1C=CC(=O)O [ST 32, 2-methoxycinnamic acid] | 2.4 to 26 | 36751 | 957146 | 26.0 | stimulating γ globin compared to control cells (ranking in words) (K562 cells; 1 mM): most active |
| Cc1ccccc1CCC(=O)O [ST 33, 2 methyl hydrocinnamic acid] | 2.4 to 26 | 89473 | 1388899 | 15.5 | stimulating γ globin compared to control cells (ranking in words) (K562 cells; 1 mM): most active; Mean BFU-E/culture 4 cultures averaged (per 0.2 million cells) [1]: 212; % Increase over control [1]: 20.5% |
| COc1ccccc1/C=C\C(=O)O [ST 34, cis-2-methoxycinnamic acid] | 2.4 to 26 | 105452 | 2255627 | 21.4 | pattern of globin gene stimulation in K562 cells (K562 cells): decreased expression of α globin |
| COc1ccc(CC(=O)O)cc1OC [ST 37, 3,4 dimethoxy phenyl acetic acid] | 2.4 to 26 | 106875 | 1206529 | 11.3 | – |
| COc1ccc(CCC(=O)O)cc1OC [ST 38, 3-3,4-dimethoxy phenyl propionic acid] | – | 191985 | 1858358 | 9.7 | – |
| COc1ccc(OC)c(CC(=O)O)c1 [ST 40, 2,5 {dimethoxy phenyl} acetic acid] | – | 85941 | 1240100 | 14.4 | – |
| COc1cc(C=CC(=O)O)cc(OC)c1O [ST 44, 3,5 dimethoxy 4-hydroxy cinnamic acid] | 2.4 to 26 | – | – | – | Mean BFU-E/culture 4 cultures averaged (per 0.2 million cells) [1]: 215; % Increase over control [1]: 11% |
| O=C(O)/C=C/c1ccccc1 [ST 47, transcinnamic acid] | 2.4 to 26 | – | – | – | Mean BFU-E/culture 4 cultures averaged (per 0.2 million cells) [1]: 322; % Increase over control [1]: 18% |
| CCC(N)C(=O)O (stereo not drawn) [alpha amino-n-butyric acid, reference compound] | – | – | – | – | inducibility of gamma (fetal) globin in the transgenic mice ([2]; mouse, in vivo): has not been readily inducible |
| CCCC(=O)OCC [butyric acid ethyl ester] | – | – | – | – | cell viability / DNA fragmentation (cell viability): reduce DNA fragmentation |
| CC(C)C(N)=O [isobutyramide, reference compound] | – | – | – | – | cell viability / DNA fragmentation (cell viability): decrease cell viability |
